Measurements from patent US11066378B2, “Caffeic acid derivatives for anti-angiogenesis” (Taipei Medical University, priority 2015, dated 2021).

Key:
[1] = tested on: HUVECs; experiment: Transwell cell migration assay; format: cell-based, human; settings: 0.5 μM, 16 h, FIG. 3A
Experimental: For evaluating cell migration, the HUVECs (1×10^5 cells/well) suspended within serum-free culture medium were seeded on inner surface of the upper chamber (ThinCerts™ Cell Culture Inserts with 8 μm pore size; #662638; Greiner Bio-One Inc., Monroe, N.C., USA) placed in the lower chamber (wells of a 24-well plate). For examining the cell invasion, the HUVECs were pre-mixed with equal volume of thawed Matrigel and rapidly seeded on the upper chamber. After 2 h for cell attachment, K20E at different concentrations (0.5, 1, and 2 μM) were added in the upper and the lower chambers, while 5% FBS as a chemoattractant was added in the lower chamber to facilitate cell migration or invasion. After 16 h incubation, the culture medium (or Matrigel) was removed clearly from inside the upper chamber, and the migrated or invasion cells attached on the outer surface of the upper chamber were fixed with 10% formaldehyde for 10 min at RT. The fixed cells were subsequently counterstained with hematoxylin. Relative cell number of each groups was counted from five random regions by light microscopy using a 40-fold magnification. The cell number of the control group (treated with 5% FBS alone) was defined as 100%.

[2] = tested on: HUVECs; experiment: Cell viability assay (MTT assay), growth inhibition of HUVECs; format: cell-based, human
Experimental: (§1) Human umbilical vein endothelial cells (HUVECs; #8000) were purchased from the ScienCell Research Laboratories (San Diego, Calif., USA). The cells were seeded on gelatin-coated culture dishes and grown in the commercial endothelial cell medium (#1001; ScienCell) containing 5% fetal bovine serum (FBS; #0025; ScienCell), 30 μg/mL endothelial cell growth supplements (ECGS; #1052; ScienCell), 100 units/mL penicillin G, and 100 μg/mL streptomycin sulfates (#0503; ScienCell). Cells at passage 3-6 were used for experiments. Mouse Lewis lung carcinoma cell line 1 (LLC1; #60050) was bought from the Food Industry Research and Development Institute (Hsinchu, Taiwan) and cultured in Gibco® Dulbecco's modified Eagle's medium (#12800-017; Invitrogen, Carlsbad, Calif., USA) supplemented with 10% FBS (HyClone, Logan, Utah, USA), 4 mM L-glutamine, 1.5 g/L sodium bicarbonate, 100 units/mL penicillin G, and 100 μg/mL streptomycin. All cells were incubated in a humidified 5% CO2 atmosphere at 37° C. and culture media was changed every 2˜3 days.
The experiments were performed according to our previous study with minor modifications (Pan et al., 2010). Briefly, the cells (2×10^4 cells/well) were seeded and grown under normal culture medium for 24 h. After another 24 h of starvation with 0.5% FBS, the cells were treated with several concentrations (1, 2, 4, 8, and 16 μM) of the tested compounds for 24 h and then incubated with 5 mg/mL of MTT (3-[4,5-dimethyl thiazol-2-yl]-2,5-diphenyl tetrazolium bromide) for 2 h. After that, the cells were washed with 1×PBS and then dimethyl sulfoxide (DMSO) was added to each well. Absorbance values at 570 nm were determined for each well using 650 nm as the reference wavelength. The absorbance of the control group (treated with 5% or 10% FBS alone) was defined as 100%.

[3] = tested on: VEGF-induced vessel formation within the Matrigel plug; experiment: Matrigel plug assay (VEGF-induced neovascularization); format: in vivo, mouse; settings: mice, dose-dependent
Experimental: Male C57BL/6 (average of 6-week-old) mice were divided randomly into four groups (n=3/group): Group 1 (control group; injection with 500 μL cold-Matrigel [#356237; BD Biosciences]), Group 2 (injection with 500 μL cold-Matrigel containing 100 ng/mL VEGF and 100 U/mL heparin), Group 3 (injection with 4 μM […] dissolved in 500 μL cold-Matrigel containing 100 ng/mL VEGF and 100 U/mL heparin), and Group 4 (injection with 8 μM […] dissolved in 500 μL cold-Matrigel containing 100 ng/mL VEGF and 100 U/mL heparin). After 1 week adaptation, the mice were anesthetized and injected subcutaneously with pre-prepared cold-Matrigel gel mentioned above into the left groin region to form jelly-like plug under normal body temperature. The vascular endothelial cells will be attracted by Matrigel plug-released VEGF to form the new vessel within the Matrigel plug, whose process will be suppressed by anti-angiogenic substances added in the Matrigel plugs. After 7 days, the mice were sacrificed and the Matrigel plug was recovered and photographed. The harvested Matrigel plugs were further homogenized in 1× phosphate buffered saline (PBS) and then centrifuged at 10000×g for 10 min at 4° C. The Drabkin's Reagent (#D5941; Sigma-Aldrich, Louis, Mo., USA) was applied for examining the hemoglobin content in the supernatants of the homogenized Matrigel plugs according to the manufacturer's instructions. […]

[4] = tested on: LLC1 lung cancer cells; experiment: Cell viability assay (MTT assay), growth inhibition of LLC1 cells; format: cell-based, mouse; settings: normal culture condition
Experimental: as §1
The experiments were performed according to our previous study with minor modifications (Pan et al., 2010). […] Absorbance values at 570 nm were determined for each well using 650 nm as the reference wavelength. The absorbance of the control group (treated with 5% or 10% FBS alone) was defined as 100%.

[5] = tested on: angiogenesis in chick chorioallantoic membrane; experiment: Chick chorioallantoic membrane (CAM) assay; settings: ex vivo supplementary data, dose-dependent

Structure (SMILES): COC(=O)/C=C/c1cc(OC(C)=O)c2c(c1)[C@H](C(=O)OC)[C@@H](c1ccc(OC(C)=O)c(OC(C)=O)c1)O2 [K20E]
- 5% FBS-induced migration of the HUVECs [1]: markedly abolished
- GI50 ([2]; Homo sapiens, HUVEC, 24 h, MTT assay, 24 h treatment, 5% FBS-stimulated HUVECs): ~7.5 µM
- 5% FBS-stimulated cell growth of the HUVECs ([2]; dose-dependent, FIG. 2A): markedly reduced
- neovessel formation within the Matrigel plug with VEGF ([3]; 4 and 8 μM, not at lower dose (1 and 2 μM), FIG. 1B upper panel): significantly decreased
- hemoglobin content of the implanted Matrigel plugs with VEGF ([3]; compared to Matrigel with VEGF alone, FIG. 1B lower panel): obviously diminished
- GI50 ([4]; Mus musculus, LLC1 lung cancer cells, data not shown, read-out: GI50 value on LLC1 (concentration that causes 50% growth inhibition)): ~79.4 µM
- cell viability of the LLC1 lung cancer cells [4]: significantly inhibit
- angiogenesis in CAM assay [5]: effectively reduce the angiogenesis
